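The compound was tested at five concentrations on cells cultured in 96-well plates, with a 48-hour exposure period. TGI: concentration producing complete growth inhibition.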
How the values were obtained:
Assay in all cases: NCI-60 cell line screen, 48 h
NCI-H522 lung = test system: NCI-H522 lung
HOP-92 NSCLC = test system: HOP-92 NSCLC
T-47D breast = test system: T-47D breast
NCI-H460 lung = test system: NCI-H460 lung
SN12C renal = test system: SN12C renal
SW-620 colon = test system: SW-620 colon
A498 renal = test system: A498 renal
SF-268 CNS = test system: SF-268 CNS
NCI-H226 lung = test system: NCI-H226 lung
SNB-19 CNS = test system: SNB-19 CNS
EKVX NSCLC = test system: EKVX NSCLC
HCC-2998 colon = test system: HCC-2998 colon
UO-31 renal = test system: UO-31 renal
UACC-62 melanoma = test system: UACC-62 melanoma
BT-549 breast = test system: BT-549 breast
KM12 colon = test system: KM12 colon
MALME-3M melanoma = test system: MALME-3M melanoma
COLO 205 colon = test system: COLO 205 colon

Q: `CCOC(=O)/C(=C/c1cn(C(C)=O)c2ccccc12)P(=O)(OC)OC` was tested. Which TGI (NCI-H522 lung) did it give?
A: The TGI was 79.3 µM.

Q: And the TGI (HOP-92 NSCLC)?
A: The TGI was > 100 µM.

Q: And the TGI (T-47D breast)?
A: The TGI was 60.5 µM.

Q: And the TGI (NCI-H460 lung)?
A: The TGI was 79.7 µM.

Q: And the TGI (SN12C renal)?
A: Its TGI is > 100 µM.

Q: What about the TGI (SW-620 colon) of the same compound?
A: Its TGI is > 100 µM.

Q: What about the TGI (A498 renal) of the same compound?
A: The TGI was 52.4 µM.

Q: What does the source list for `Nc1c(-c2ccccc2)c2ccc([N+](=O)[O-])cc2c(=O)n1-c1cccc(C(=O)O)c1`?
A: TGI (SF-268 CNS): > 100 µM; TGI (NCI-H522 lung): > 100 µM; TGI (NCI-H226 lung): > 100 µM; TGI (SNB-19 CNS): > 100 µM; TGI (T-47D breast): > 100 µM; TGI (NCI-H460 lung): > 100 µM; TGI (EKVX NSCLC): > 100 µM; TGI (HCC-2998 colon): > 100 µM; TGI (UO-31 renal): > 100 µM; TGI (UACC-62 melanoma): > 100 µM; TGI (SW-620 colon): > 100 µM; TGI (BT-549 breast): > 100 µM; TGI (KM12 colon): > 100 µM; TGI (A498 renal): > 100 µM

Q: How did the TGI (SF-268 CNS) turn out when `CCN(CCCl)c1cc(CN(C)C)cc(NC(=O)c2ccc(C(=O)Nc3cccc(N(CCCl)NN)c3)cc2)c1` was run?
A: Its TGI is 20.5 µM.

Q: And the TGI (MALME-3M melanoma)?
A: The TGI was 0.0939 µM.

Q: What about the TGI (COLO 205 colon) of the same compound?
A: The TGI was 0.199 µM.

Q: What about the TGI (HOP-92 NSCLC) of the same compound?
A: The TGI was 0.707 µM.

Q: And the TGI (SN12C renal)?
A: Its TGI is 1.16 µM.

Q: And the TGI (HCC-2998 colon)?
A: Its TGI is 0.298 µM.

Q: And the TGI (UO-31 renal)?
A: Its TGI is 1.54 µM.

Q: And the TGI (UACC-62 melanoma)?
A: The TGI was 0.324 µM.

Q: And the TGI (KM12 colon)?
A: Its TGI is 0.329 µM.
